Source: patent US10010547B2 (CASCADIAN THERAPEUTICS, INC., priority 2014, dated 2018)
Counter-ions that a name gives are not always drawn. Like-named read-outs stand apart in the source and are kept apart here.

Assays:
[1] = target: Chk-1 kinase (Homo sapiens (Human), UniProt O14757); experiment: Chk-1 Kinase Inhibiting Activity (33P-ATP filter assay, CHKtide substrate); assay type: biochemical; details: against Chk-1 kinase; read-out: IC50
Method: Chk-1 Kinase Inhibiting Activity
The compounds of the invention were tested for activity against Chk-1 kinase using the materials and protocols set out below.
Base Reaction buffer: 20 mM Hepes (pH 7.5), 10 mM MgCl2, 1 mM EGTA, 0.02% Brij35, 0.02 mg/ml BSA, 0.1 mM Na3VO4, 2 mM DTT, 1% DMSO
*Required cofactors are added individually to each kinase reaction
(i) Prepare indicated substrate in freshly prepared Base Reaction Buffer
(ii) Deliver any required cofactors to the substrate solution above
(iii) Deliver indicated kinase into the substrate solution and gently mix
(iv) Deliver compounds in DMSO into the kinase reaction mixture
(v) Deliver ^33P-ATP (specific activity 0.01 μCi/μl final) into the reaction mixture to initiate the reaction.
(vi) Incubate kinase reaction for 120 minutes at room temperature
(vii) Reactions are spotted onto P81 ion exchange paper (Whatman #3698-915)
(viii) Wash filters extensively in 0.1% phosphoric acid.
(ix) Dry filters and measure counts in scintillation counter
Recombinant full length construct, N-terminal GST tagged, purified from insect cells.
No special measures were taken to activate this kinase.
Final concentration in assay=0.5 nM
Peptide sequence: [[…]]
Final concentration in assay=20 μM
No additional cofactors are added to the reaction mixture
From the results obtained by following the above protocol, the IC50 values against Chk-1 kinase of each of the compounds of Examples 1-153 were determined and these are shown in Table 3.

[2] = tested on: MIA PaCa-2 cells; experiment: Gemcitabine Combination Cell Assay (Cell Titer Glo); assay type: cell-based; details: for IC50: Homo sapiens; for 10xLS: approximate concentration of Chk1 inhibitor that results in a 10-fold reduction in the IC50 of gemcitabine alone; for 2xLS: approximate concentration of Chk1 inhibitor that results in a two-fold reduction in the IC50 of gemcitabine alone
Method: Gemcitabine Combination Cell Assay
Exponentially growing MIA PaCa-2 (ATCC CRL-1420) cells are treated with trypsin to remove cells from the plate surface. Approximately 10,000 cells/well are plated in 96 well plates in RPMI containing 10% fetal bovine serum, 1% sodium pyruvate and 1% L-GlutaMax. Cells are allowed to adhere to the plate surface overnight. Serial half-log dilutions of Chk1 inhibitor test compounds and gemcitabine are made with a final highest concentration of 3000 nM and 100 nM, respectively. Chk1 inhibitors and gemcitabine are combined so that each concentration of Chk1 inhibitor is added to each concentration of gemcitabine. Each drug is also tested as a single agent. Drugs are added to adherent cells (in duplicate) and incubated for 72 h. At 72 h the cells are treated with Promega Cell Titer Glo reagent for approximately 15 minutes. Luminescence (relative light units, RLU) is recorded using a BMG Polarstar Omega plate reader. The single agent concentration that results in a 50% reduction in total signal (IC50) is calculated using PRISM software and a four-parameter non-linear regression curve fit. For combination studies the RLUs are plotted using PRISM on an XY plot with the gemcitabine concentration on the X axis and RLU on the Y axis. The RLU for each concentration of Chk1 inhibitor is plotted as a function of gemcitabine concentration. The IC50 for gemcitabine alone and at each concentration of Chk1 is determined using a four-parameter non-linear regression curve fit. The approximate concentration of Chk1 inhibitor that results in a two and ten-fold reduction in the IC50 of gemcitabine alone is calculated as an indication of synergistic potency.
From the results obtained by following the above protocol, the IC50 values against MIAPaca-2 cells of the Chk1 inhibitor alone (Chk1 IC50), the approximate concentration of Chk1 inhibitor that results in a two-fold (2×LS) and a 10-fold (10×LS) reduction in the IC50 of gemcitabine alone of each of the compounds of Examples 1-154 are shown in Table 4.

[3] = Chk1 inhibitor alone, MIA PaCa-2 cells, 72 h, read-out: Chk1 IC50
[4] = MIA PaCa-2, 72 h, read-out: Chk1 IC50 (nM)

Chk-1 kinase, sequence (O14757 whole entry): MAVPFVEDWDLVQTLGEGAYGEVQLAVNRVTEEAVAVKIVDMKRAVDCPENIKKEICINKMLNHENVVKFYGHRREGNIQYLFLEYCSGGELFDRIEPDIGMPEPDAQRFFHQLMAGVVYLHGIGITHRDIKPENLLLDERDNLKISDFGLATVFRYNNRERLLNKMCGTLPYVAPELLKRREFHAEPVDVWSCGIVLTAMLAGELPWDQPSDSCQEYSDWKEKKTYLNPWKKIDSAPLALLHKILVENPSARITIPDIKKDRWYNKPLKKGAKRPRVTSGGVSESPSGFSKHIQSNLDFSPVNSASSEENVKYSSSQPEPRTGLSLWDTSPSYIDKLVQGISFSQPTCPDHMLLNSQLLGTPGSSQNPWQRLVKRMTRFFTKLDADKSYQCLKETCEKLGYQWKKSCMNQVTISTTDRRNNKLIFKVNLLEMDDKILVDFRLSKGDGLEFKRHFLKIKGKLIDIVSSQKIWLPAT

IC50 [1] [nM] | IC50 [2, 3] [nM] | Compound | 10xLS ([2]; MIA PaCa-2 cells, 72 h) [nM] | 2xLS ([2]; MIA PaCa-2 cells, 72 h) [nM] | IC50 [2, 4] [nM]
0.058 | 259 | COc1cc(CNCc2ccc(F)cc2)ccc1-c1cc(Nc2cnc(C#N)cn2)n[nH]1 [Example 8, 5-(5-{4-[(4-fluoro-benzylamino)-methyl]-2-methoxy-phenyl}-1H-pyrazol-3-ylamino)-pyrazine-2-carbonitrile] | ~200 | 10 | 
0.18 | 168 | COc1cc(C2CCCNC2)ccc1-c1cc(Nc2cnc(C#N)cn2)n[nH]1 (centres unmarked) [Example 39, 5-[[5-[2-methoxy-4-(3-piperidyl)phenyl]-1H-pyrazol-3-yl]amino]pyrazine-2-carbonitrile] | 30 | <3 | 
2.9 | 1380 | COc1cc(C2CCNCC2)c(Cl)cc1-c1cc(Nc2cnc(C#N)cn2)n[nH]1 [Example 68, 5-[[5-[5-chloro-2-methoxy-4-(4-piperidyl)phenyl]-1H-pyrazol-3-yl]amino]pyrazine-2-carbonitrile] | 1000 | 100 | 
0.17 | 441 | COc1cc(C2CCN(CCF)CC2)ccc1-c1cc(Nc2cnc(C#N)cn2)n[nH]1 [Example 106, 5-[[5-[4-[1-(2-fluoroethyl)-4-piperidyl]-2-methoxy-phenyl]-1H-pyrazol-3-yl]amino]pyrazine-2-carbonitrile] | 100 | 3 | 
0.15 | 233 | COc1cc(C2CCN(CCO)CC2)ccc1-c1cc(Nc2cnc(C#N)cn2)n[nH]1 [Example 99, 5-[[5-[4-[1-(2-hydroxyethyl)-4-piperidyl]-2-methoxy-phenyl]-1H-pyrazol-3-yl]amino]pyrazine-2-carbonitrile] | 30 | <3 | 
3.1 | 2300 | CC(C)Oc1cc(C2CCNCC2)ccc1-c1cc(Nc2cnc(C#N)cn2)n[nH]1 [Example 53, 5-[[5-[2-isopropoxy-4-(4-piperidyl)phenyl]-1H-pyrazol-3-yl]amino]pyrazine-2-carbonitrile] | 1000 | 100 | 
0.15 | 177 | COc1cc(N2CCNCC2)cc(OC)c1-c1cc(Nc2cnc(C#N)cn2)n[nH]1 [Example 121, 5-[[5-(2,6-dimethoxy-4-piperazin-1-yl-phenyl)-1H-pyrazol-3-yl]amino]pyrazine-2-carbonitrile] | <100 | 3 | 
0.46 | 953 | COc1cc(C2CCNCC2)ccc1-c1cc(Nc2ccc(C#N)nc2)n[nH]1 [Example 52, 5-[[5-[2-methoxy-4-(4-piperidyl)phenyl]-1H-pyrazol-3-yl]amino]pyridine-2-carbonitrile] | 300 | 30 | 
0.14 | 111 | COc1cc(C2(F)CN(C)C2)ccc1-c1cc(Nc2cnc(C#N)cn2)n[nH]1 [Example 66, 5-[[5-[4-(3-fluoro-1-methyl-azetidin-3-yl)-2-methoxy-phenyl]-1H-pyrazol-3-yl]amino]pyrazine-2-carbonitrile] | 30 | <3 | 
0.019 | 970 | COc1cc(CO[C@@H]2CCN(C(C)C)C2)ccc1-c1cc(Nc2cnc(C#N)cn2)n[nH]1 [Example 141, 5-[[5-[4-[[(3R)-1-isopropylpyrrolidin-3-yl]oxymethyl]-2-methoxy-phenyl]-1H-pyrazol-3-yl]amino]pyrazine-2-carbonitrile] | <300 | <10 | 
0.031 | 254 | COc1cc(N(C)CC2CCN(C(C)C)CC2)ccc1-c1cc(Nc2cnc(C#N)cn2)n[nH]1 [Example 148, 5-[[5-[4-[(1-isopropyl-4-piperidyl)methyl-methyl-amino]-2-methoxy-phenyl]-1H-pyrazol-3-yl]amino]pyrazine-2-carbonitrile] | <100 | <3 | 
10 | 5580 | COc1cc(C2CCN(C)CC2)ccc1-c1cc(Nc2cnc(C)cn2)n[nH]1 [Example 26, N-[5-[2-methoxy-4-(1-methyl-4-piperidyl)phenyl]-1H-pyrazol-3-yl]-5-methyl-pyrazin-2-amine] | >3000 | 1000 | 
0.055 | 199 | COc1cc(CN2CCCC2)ccc1-c1cc(Nc2cnc(C#N)cn2)n[nH]1 [Example 101, 5-[[5-[2-methoxy-4-(pyrrolidin-1-ylmethyl)phenyl]-1H-pyrazol-3-yl]amino]pyrazine-2-carbonitrile] | <100 | 3 | 
0.69 | 1260 | COc1cc(C2CCN(C)CC2)ccc1-c1cc(Nc2cnc(Cl)cn2)n[nH]1 [Example 44, 5-chloro-N-[5-[2-methoxy-4-(1-methyl-4-piperidyl)phenyl]-1H-pyrazol-3-yl]pyrazin-2-amine] | 1000 | 100 | 
0.15 | 36 | COc1cc(N2CCN(C(C)C)CC2)ccc1-c1cc(Nc2cnc(C#N)cn2)n[nH]1 [Example 81, 5-[[5-[4-(4-isopropylpiperazin-1-yl)-2-methoxy-phenyl]-1H-pyrazol-3-yl]amino]pyrazine-2-carbonitrile] | <30 | <3 | 

Compound | IC50 [1] [nM] | IC50 [2, 3] [nM] | 10xLS ([2]; MIA PaCa-2 cells, 72 h) [nM] | 2xLS ([2]; MIA PaCa-2 cells, 72 h) [nM] | IC50 [2, 4] [nM]
COc1cc(CNCc2ccccc2)ccc1-c1cc(Nc2cnc(C#N)cn2)n[nH]1 [Example 3, 5-{5-[4-(Benzylamino-methyl)-2-methoxy-phenyl]-1H-pyrazol-3-ylamino}-pyrazine-2-carbonitrile hydrochloride] | 0.21 |  | 100 | 10 | 275
COc1cc(C2CCN(C(=O)CN(C)C)CC2)ccc1-c1cc(Nc2cnc(C#N)cn2)n[nH]1 [Example 17, 5-[[5-[4-[1-[2-(Dimethylamino)acetyl]-4-piperidyl]-2-methoxy-phenyl]-1H-pyrazol-3-yl]amino]pyrazine-2-carbonitrile hydrochloride] | 0.29 |  | 300 | 10 | 1820
CCN1CCC(c2ccc(-c3cc(Nc4cnc(C#N)cn4)n[nH]3)c(OC)c2)CC1 [Example 60, 5-[[5-[4-(1-ethyl-4-piperidyl)-2-methoxy-phenyl]-1H-pyrazol-3-yl]amino]pyrazine-2-carbonitrile hydrochloride] | 0.1 |  | 100 | 3 | 329
COc1cc(C2CCN(C)CC2(F)F)ccc1-c1cc(Nc2cnc(C#N)cn2)n[nH]1 (centres unmarked) [Example 97, 5-[[5-[4-(3,3-Difluoro-1-methyl-4-piperidyl)-2-methoxy-phenyl]-1H-pyrazol-3-yl]amino]pyrazine-2-carbonitrile hydrochloride] | 1.1 |  | 300 | 10 | 1500
CCN1CC[C@H](OCc2ccc(-c3cc(Nc4cnc(C#N)cn4)n[nH]3)c(OC)c2)C1 [Example 138, 5-[[5-[4-[[(3S)-1-ethylpyrrolidin-3-yl]oxymethyl]-2-methoxy-phenyl]-1H-pyrazol-3-yl]amino]pyrazine-2-carbonitrile] | 0.041 | 836 | 300 | <10 | 
